{
  "source": "patent US20160022775A1",
  "about": "“TREATING LYSOSOMAL STORAGE DISEASE” (UNIVERSITY OF ROCHESTER, priority 2013, published 2016)",
  "key": {"[1]": {"system": "oligodendrocyte progenitor cells", "assay": "Migration of oligodendrocyte progenitor cells outward from a drop of cells", "assay_type": "cell-based", "details": "OPCs exposed to PDGF; not a lethal level", "procedure": "Exposure of oligodendrocyte progenitor cells to 1 μM psychosine is enough to greatly reduce cell migration.\nAnother aspect of psychosine function is to cause alterations in the cytoskeleton, which in dividing cells is manifested as a failure of migration. The migration of oligodendrocyte progenitor cells outward from a drop of cells was examined. Cells were stained with calcein to label living cells and propidium iodide (PI) to label dead cells. […] This effect was observed on multiple cell types."}, "[2]": {"system": "OPCs", "assay": "OPC division by clonal analysis in the presence of psychosine", "assay_type": "cell-based, rat", "details": "OPCs grown in the presence of PDGF for 6 days", "procedure": "As shown, by day 3 even 3.3 μM PC caused marked cell death. Division was analyzed by clonal analysis, and exposure to 1 μM PC caused a marked reduction in clonal size for cells grown in the presence of PDGF for 6 days.\n(§1) Studies on division and survival of OPCs exposed to 0.1, 0.5, 1, 2, 5 or 10 μM PC, GPS or LS were conducted for 1, 2, 3 or 5 days. These experiments followed standard procedures (see Mayer et al. PNAS, 91: 7496-7500 (1994); Dietrich et al. J. Biol. 5: e22 (2006); and Han et al. J. Biol. 7 (4):12 (2008)) except that cell death was quantified using calcein AM and propidium iodide (PI) labeling of live cultures was used to identify live and dead cells, respectively. […] These dyes effectively overcome the problems with dyes for which cell numbers are inferred from metabolic activity (e.g., MTT, Alamar Blue), and provide quantitative information on cell numbers. Independent confirmation was obtained in all cases by visual examination of cultures. In these, and all other cases, all experiments were repeated at least three times, and all data points were collected in triplicate. All experiments were conducted in conditions of 5% O2, to more closely mimic physiological oxygen concentrations."}, "[3]": {"system": "human fetal neuroepithelial stem cells (hNSCs)", "assay": "Sensitivity of human CNS precursor cells to toxic lipids", "assay_type": "cell-based"}, "[4]": {"system": "immortalized cell line characterized as an oligodendrocyte progenitor cell line", "details": "Zaka et al.; over 24 hours; cited from earlier work"}, "[5]": {"system": "primary OPCs", "assay": "Survival of OPCs exposed to toxic lipids (calcein AM / propidium iodide, CELIGO)", "assay_type": "cell-based", "procedure": "Whether toxic lipids have similar effects on the function of oligodendrocyte precursor cells (OPCs, the direct ancestors of myelin-forming oligodendrocytes), due to the common features of myelin breakdown and failure to repair such damage in LSDs, was determined. These experiments all used standard techniques (see Mayer et al. PNAS, 91: 7496-7500 (1994); Ibarrola et al. Dev. Biol. 180: 1-121 (1996); Smith et al. PNAS 97: 10032-10037 (2000); Power et al. Dev. Biol. 245: 362-375 (2002); Dietrich et al. J. Biol. 5: e22 (2006); Li et al. PLoS Biol. 5: e35 (2007)), as adapted to enable rapid automated analysis of microscopy images captured using the CELIGO® imaging system (Brooks Automation, Chelmsford, Mass.). This system enables collection of data using brightfield and three-color fluorescence and provides similar information to be obtained at the single cell level in adherent cell cultures as yielded by flow cytometry. This approach enables quantitatively analysis of 80 different experimental conditions (in triplicate) per hour.\nas §1\nThe sensitivity of primary OPCs to PC was determined. The sensitivity of the cells to glucopsychosine (GPC) and lysosulfatide (LS) was also examined. […] Thus, OPCs are even more sensitive to PC than oligodendrocytes, which are sensitive at 10 μM psychosine. More critically, they are an order of magnitude more sensitive than indicated by studies described in Zaka et al. (Mol. Cell Neurosci. 30 (3): 398-407 (2005)) on immortalized cell lines."}, "[6]": {"system": "lysosomal pH of cells exposed to psychosine", "assay": "Lysosomal pH in cells exposed to psychosine", "assay_type": "cell-based", "details": "cells exposed to psychosine versus normal cells", "excerpt": "The effects of cytoskeletal collapse and changes in lysosomal pH were examined. […] The agents that protect both division and survival also restore lysosomal pH to a normal range. However, […] that rescue cell division examined for their effects on lysosomal pH also restore normal levels of pH. Thus, rescuing lysosomal pH is not sufficient to rescue cell survival. Further, agents chosen solely on the basis of rescue of lysosomal pH are not sufficient to also function as rescue agents in cell survival."}, "[7]": {"system": "oligodendrocytes", "details": "cited from earlier work"}},
  "data": [
    {"smiles": "CCCCCCCCCCCCC/C=C/[C@@H](O)[C@@H](N)CO[C@@H]1O[C@H](CO)[C@H](O)[C@H](O)[C@H]1O", "note": "[psychosine]", "values": [
      {"measurement": "concentration enough to greatly reduce cell migration", "setting": "[1]", "value": 1, "unit": "µM"},
      {"measurement": "concentration causing marked reduction in clonal size", "setting": "[2]", "value": 1, "unit": "µM"},
      {"measurement": "vulnerability of hNSCs compared with rat OPCs", "setting": "[3]", "value": "at least as vulnerable"},
      {"measurement": "concentration at which immortalized OPC line is vulnerable / marked cell death", "setting": "[4]", "value": 50, "unit": "µM"},
      {"measurement": "exposure level as low as which toxic for OPCs", "setting": "[5]", "value": 5, "unit": "µM"},
      {"measurement": "concentration causing marked cell death", "setting": "[5]; purified OPCs, by day 3, calcein AM, CELIGO", "value": 3.3, "unit": "µM"},
      {"measurement": "effect on pH of exposed cells", "setting": "[6]", "value": "becomes more alkaline"},
      {"measurement": "concentration at which oligodendrocytes are sensitive", "setting": "[7]", "value": 10, "unit": "µM"}
    ]}
  ]
}
